Reference: publication PMC11408249, “Non-invasive in vivo imaging of changes in Collagen III turnover in myocardial fibrosis” (npj Imaging, 2024)

Molecular target: T1, COL3 (Homo sapiens, UniProt P02461)
T1 sequence (P02461 154-1221 limits assumed): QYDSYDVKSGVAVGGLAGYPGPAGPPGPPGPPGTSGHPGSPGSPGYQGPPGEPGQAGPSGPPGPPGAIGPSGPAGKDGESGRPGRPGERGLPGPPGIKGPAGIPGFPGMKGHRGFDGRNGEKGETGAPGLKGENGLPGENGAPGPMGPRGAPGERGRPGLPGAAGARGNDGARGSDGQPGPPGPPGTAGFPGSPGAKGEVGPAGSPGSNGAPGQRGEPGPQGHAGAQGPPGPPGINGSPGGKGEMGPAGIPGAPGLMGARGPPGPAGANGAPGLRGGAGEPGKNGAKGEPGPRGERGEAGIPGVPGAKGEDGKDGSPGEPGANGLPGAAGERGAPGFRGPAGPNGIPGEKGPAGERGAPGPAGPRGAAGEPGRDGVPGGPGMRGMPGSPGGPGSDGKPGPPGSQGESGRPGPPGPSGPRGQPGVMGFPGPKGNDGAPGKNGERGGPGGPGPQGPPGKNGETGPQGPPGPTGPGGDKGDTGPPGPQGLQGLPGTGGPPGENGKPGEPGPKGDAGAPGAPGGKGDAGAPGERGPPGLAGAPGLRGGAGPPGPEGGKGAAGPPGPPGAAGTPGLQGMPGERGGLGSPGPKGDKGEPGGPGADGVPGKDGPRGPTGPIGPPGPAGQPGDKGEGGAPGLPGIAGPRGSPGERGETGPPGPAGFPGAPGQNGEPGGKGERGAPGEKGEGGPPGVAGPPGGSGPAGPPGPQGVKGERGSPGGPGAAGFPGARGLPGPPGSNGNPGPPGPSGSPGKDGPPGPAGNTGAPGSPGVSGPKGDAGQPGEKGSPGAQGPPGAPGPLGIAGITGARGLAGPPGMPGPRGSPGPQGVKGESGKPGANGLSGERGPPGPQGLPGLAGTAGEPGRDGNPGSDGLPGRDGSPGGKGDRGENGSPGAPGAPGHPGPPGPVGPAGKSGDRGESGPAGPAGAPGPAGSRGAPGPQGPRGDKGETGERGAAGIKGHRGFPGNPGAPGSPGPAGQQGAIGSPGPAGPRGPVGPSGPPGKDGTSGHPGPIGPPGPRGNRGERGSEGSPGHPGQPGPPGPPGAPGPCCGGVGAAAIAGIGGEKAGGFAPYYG
Test: Competition assay: Gd(III) tetrameric probe displaces Eu(III) monomeric probe from COL3
Format: binding
Conditions: 5 µM Eu(III) monomeric probe, Gd tetrameric probe 0.01–200 µM, 1 h room temperature
Experimental: The binding interactions of the tetrameric Gd(III)-labelled probes with COL3 were studied by a competition assay, as Gd(III) is not suitable for TRF based assays. In competition assays, the binding of the Gd(III)-labelled tetrameric probe of interest to the target protein was measured by competition with the corresponding Eu(III)-labelled monomeric probe. Specifically, a row of wells was coated with collagen (COL3) and added with a constant amount of the Eu(III)-labelled probe of interest (e.g. Eu-DOTAMA-CBP1). Wells were then added and incubated with increasing concentrations of the corresponding tetrameric Gd(III)-labelled probes (e.g. [Gd-DOTAMA]4-CBP1). Displacement curves were then obtained by plotting the residual Eu(III) TRF against the concentration of the Gd(III)-labelled probe. Briefly, eight solutions were made containing a fixed concentration of Eu(III)-monomeric probe (5 µM) and increasing concentrations of the Gd-tetrameric probe (0.01–200 µM). Plates pre-coated with COL3 were simultaneously incubated with both compounds for 1 h at room temperature (triplicate wells per plate and 3 independent plates). After the incubation, the Eu(III) TRF assay protocol including the acid extraction and enhancement solution steps were used to measure the binding of the monomeric probe in the presence of the competing tetrameric probe, as previously described. […]

| Substance | displacement of the monomeric Eu(III)-labelled counterpart from COL3 (in words) |
| --- | --- |
| Ac-C-RDKKVAEQS [[Gd-DOTAMA]4-SccCBP1, scrambled tetrameric Gd probe (Ac-C-…), negative control] | cannot |
| Ac-C-TEFPLRMRDWLKN [[Gd-DOTAMA]4-CBP2, tetrameric probe: tri-lysine scaffold bearing four Gd-DOTAMA units conjugated at the N-terminus of CBP2] | can be observed only at very high concentrations |
